According to paper PMC4848905, “Fragment Screening of Human Aquaporin 1” (International Journal of Molecular Sciences, 2016):

Key:
[1] = system: human red blood cells; parameters: method as in PMID 26028295; details: cited from earlier work
[2] = biological target: T1, hAQP1 (Homo sapiens, UniProt P29972); parameters: method as in PMID 26028295; details: 30 µM; cited from earlier work
T1 construct: made in house; host or cells: Spodoptera frugiperda (Sf9) insect cells, baculovirus vector pFB-LIC-Bse
T1 sequence (P29972 1-269): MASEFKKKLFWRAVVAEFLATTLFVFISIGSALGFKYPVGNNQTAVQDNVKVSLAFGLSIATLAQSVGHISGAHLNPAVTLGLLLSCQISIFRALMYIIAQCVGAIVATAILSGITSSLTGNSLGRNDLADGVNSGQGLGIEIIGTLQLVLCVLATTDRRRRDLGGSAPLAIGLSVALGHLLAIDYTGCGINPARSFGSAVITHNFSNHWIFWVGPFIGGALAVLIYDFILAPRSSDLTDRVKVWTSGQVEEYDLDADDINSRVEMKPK

[3] = biological target: the molecule itself; assay: native gel or EMSA; blue-native PAGE (4%-16% Bis-Tris gel, 4 °C) of purified protein in sample buffer with 100 mM OG, 750 mM aminocaproic acid, 50 mM Bis-Tris HCl pH 7.0, 0.5 mM EDTA
[4] = biological target: the molecule itself; assay: SEC; gel filtration on HiLoad 16/600 Superdex 200 prep grade at 4 °C; 20 mM Tris-HCl pH 8, 300 mM NaCl, 1% OG; major peak at 70 mL
[5] = biological target: T2, E. coli aquaporin Z (E. coli), P60844; assay: native gel or EMSA; blue-native PAGE (4%-16% Bis-Tris gel, 4 °C) of purified protein in sample buffer with 100 mM OG, 750 mM aminocaproic acid, 50 mM Bis-Tris HCl pH 7.0, 0.5 mM EDTA; details: remark: other sources report otherwise
T2 chain: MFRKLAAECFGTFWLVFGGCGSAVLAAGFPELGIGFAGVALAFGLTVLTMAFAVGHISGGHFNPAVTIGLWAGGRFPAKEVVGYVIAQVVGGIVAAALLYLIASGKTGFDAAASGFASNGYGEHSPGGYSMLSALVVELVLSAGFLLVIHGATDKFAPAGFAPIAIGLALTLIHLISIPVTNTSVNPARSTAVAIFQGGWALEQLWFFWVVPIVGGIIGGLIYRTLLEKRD

O=[N+]([O-])c1ccc2c(c1)/C(=N/N=C1c3ccccc3Cc3ccccc31)c1cc([N+](=O)[O-])cc([N+](=O)[O-])c1-2 [NSC658139]
overall amplitude of the traces [1]: strong reduction in overall amplitude | rate constant in the RBC assays [1]: did not reduce the rate constant | stabilization of hAQP1 [2]: ≤ 13 °C

B1: human aquaporin 1 (6His-TEV-hAQP1) (natural protein, UniProt P29972 1-269, looked up)
chain: MASEFKKKLFWRAVVAEFLATTLFVFISIGSALGFKYPVGNNQTAVQDNVKVSLAFGLSIATLAQSVGHISGAHLNPAVTLGLLLSCQISIFRALMYIIAQCVGAIVATAILSGITSSLTGNSLGRNDLADGVNSGQGLGIEIIGTLQLVLCVLATTDRRRRDLGGSAPLAIGLSVALGHLLAIDYTGCGINPARSFGSAVITHNFSNHWIFWVGPFIGGALAVLIYDFILAPRSSDLTDRVKVWTSGQVEEYDLDADDINSRVEMKPK
notes: human aquaporin 1, full-length cDNA cloned in pFB-LIC-Bse downstream of an N-terminal 6His and TEV protease cleavage site; No TEV cleavage is described; An octamer band is also assigned in BN-PAGE; also called recombinant hAQP1; source: Sf9 (Spodoptera frugiperda) insect cells, purified (Ni-NTA, gel filtration) in n-octyl-β-D-glucopyranoside
stoichiometry N [3]: 8 | stoichiometry N [4]: 4

B2: E. coli aquaporin Z, P60844 1-231 (natural protein)
chain: MFRKLAAECFGTFWLVFGGCGSAVLAAGFPELGIGFAGVALAFGLTVLTMAFAVGHISGGHFNPAVTIGLWAGGRFPAKEVVGYVIAQVVGGIVAAALLYLIASGKTGFDAAASGFASNGYGEHSPGGYSMLSALVVELVLSAGFLLVIHGATDKFAPAGFAPIAIGLALTLIHLISIPVTNTSVNPARSTAVAIFQGGWALEQLWFFWVVPIVGGIIGGLIYRTLLEKRD
stoichiometry N [5]: 8
